Test results taken from ChEMBL document CHEMBL1135919, “Synthesis of photoreactive phosphatidic acid analogues displaying activatory properties on cyclic AMP-phosphodiesterases. Photoaffinity labeling of an isoform of phosphodiesterase” (J Med Chem, 2002).

Each compound was assayed against T1, 3',5'-cyclic-AMP phosphodiesterase 4D (Rattus norvegicus, UniProt P14270) (assay: Activation of PDE4D3 (phosphodiesterase).).
T1 sequence (P14270 whole entry): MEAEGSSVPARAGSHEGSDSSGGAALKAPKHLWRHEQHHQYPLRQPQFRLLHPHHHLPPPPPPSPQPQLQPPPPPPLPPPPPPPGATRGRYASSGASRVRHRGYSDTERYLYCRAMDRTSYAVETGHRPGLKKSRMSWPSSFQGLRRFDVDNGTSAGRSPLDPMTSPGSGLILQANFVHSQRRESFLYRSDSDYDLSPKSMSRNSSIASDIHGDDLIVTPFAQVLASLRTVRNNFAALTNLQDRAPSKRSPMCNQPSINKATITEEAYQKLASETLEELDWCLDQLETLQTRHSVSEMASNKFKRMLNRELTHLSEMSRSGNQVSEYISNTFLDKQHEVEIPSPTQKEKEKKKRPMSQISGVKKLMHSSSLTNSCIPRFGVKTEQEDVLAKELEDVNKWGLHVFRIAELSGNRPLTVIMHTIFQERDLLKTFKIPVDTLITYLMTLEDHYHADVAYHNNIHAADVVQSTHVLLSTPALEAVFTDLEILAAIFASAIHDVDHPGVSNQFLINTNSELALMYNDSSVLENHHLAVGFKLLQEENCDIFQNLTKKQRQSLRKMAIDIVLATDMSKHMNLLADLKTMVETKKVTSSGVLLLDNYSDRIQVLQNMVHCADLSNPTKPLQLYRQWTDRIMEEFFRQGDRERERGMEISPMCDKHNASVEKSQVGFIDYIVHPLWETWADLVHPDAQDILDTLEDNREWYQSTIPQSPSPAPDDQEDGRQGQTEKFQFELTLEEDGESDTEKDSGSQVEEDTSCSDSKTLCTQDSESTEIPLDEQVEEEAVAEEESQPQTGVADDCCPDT
Format: functional

Row | EC50 | SMILES
1 | 23.5 µM | CCCCCCCC/C=C/CCCCCCCC(=O)OC(COC(=O)CCCCCCCCCCCNC(=O)c1c(F)c(F)c(N=[N+]=[N-])c(F)c1F)COP(=O)(O)O (stereo not drawn)
2 | 23.5 µM | CCCCCCCC/C=C/CCCCCCCC(=O)OCC(COP(=O)(O)O)OC(=O)CCCCCCCCCCCNC(=O)c1c(F)c(F)c(N=[N+]=[N-])c(F)c1F (stereo not drawn)
3 | 24.2 µM | CCCCCCCCCCCCCCCC(=O)OCC(COP(=O)(O)O)OC(=O)CCCCCCCCCCCNC(=O)c1c(F)c(F)c(N=[N+]=[N-])c(F)c1F (stereo not drawn)
